In patent US20260262643A1, “HERBICIDAL BENZOXAZINES” (FMC CORPORATION, priority 2022, published 2026):

Assays:
corn [1] = assay: Test C preemergence; type: in vivo, Zea mays; details: preemergence, 0 to 100 scale (0 no effect, 100 complete control)
Procedure, shortened: (§1)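 Seeds sown in loam soil–sand blend received a directed preemergence soil spray of test chemical in non-phytotoxic solvent with surfactant; postemergence plants (2–10 cm, one- to two-leaf stage) were sprayed with the same formulation. Greenhouse-held 10 days, then visually rated for injury versus untreated controls, 0 (no effect) to 100 (complete control).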

pigweed, palmer [2] = assay: Test C preemergence; type: in vivo, Amaranthus palmeri; details: preemergence, 0 to 100 scale (0 no effect, 100 complete control)
Procedure, shortened: as §1

oat, wild [3] = assay: Test C postemergence; type: in vivo, Avena fatua; details: 10 days, 0 to 100 scale (0 no effect, 100 complete control)
Procedure, shortened: as §1

soybean [4] = assay: Test C preemergence; type: in vivo, Glycine max; details: preemergence, 0 to 100 scale (0 no effect, 100 complete control)
Procedure, shortened: as §1

sedge, umbrella = assay: Test D flooded paddy test; type: in vivo, Cyperus difformis; details: 250 g ai/ha, applied to paddy water, visual rating after 13 to 14 days, scale 0 to 100 (0 no effect, 100 complete control)
Procedure, shortened: (§2)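 Visual ratings from 0, meaning no effect, to 100, meaning complete control, were assigned against untreated controls 13 to 14 days after compounds were added to the floodwater of pots kept 3 cm deep, with plants at the 2-leaf stage.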

blackgrass [5] = assay: Test C preemergence; type: in vivo, Alopecurus myosuroides; details: preemergence, 0 to 100 scale (0 no effect, 100 complete control)
Procedure, shortened: as §1

pigweed, palmer [6] = assay: Test C postemergence; type: in vivo, Amaranthus palmeri; details: 10 days, 0 to 100 scale (0 no effect, 100 complete control)
Procedure, shortened: as §1

ragweed [7] = assay: Test C preemergence; type: in vivo, Ambrosia artemisiifolia; details: preemergence, 0 to 100 scale (0 no effect, 100 complete control)
Procedure, shortened: as §1

oat, wild [8] = assay: Test C preemergence; type: in vivo, Avena fatua; details: preemergence, 0 to 100 scale (0 no effect, 100 complete control)
Procedure, shortened: as §1

ryegrass, Italian [9] = assay: Test C preemergence; type: in vivo, Lolium multiflorum; details: preemergence, 0 to 100 scale (0 no effect, 100 complete control)
Procedure, shortened: as §1

blackgrass [10] = assay: Test C postemergence; type: in vivo, Alopecurus myosuroides; details: 10 days, 0 to 100 scale (0 no effect, 100 complete control)
Procedure, shortened: as §1

wheat [11] = assay: Test C postemergence; type: in vivo, Triticum aestivum; details: 10 days, 0 to 100 scale (0 no effect, 100 complete control)
Procedure, shortened: as §1

kochia [12] = assay: Test C postemergence; type: in vivo, Bassia scoparia; details: 10 days, 0 to 100 scale (0 no effect, 100 complete control)
Procedure, shortened: as §1

wheat [13] = assay: Test C preemergence; type: in vivo, Triticum aestivum; details: preemergence, 0 to 100 scale (0 no effect, 100 complete control)
Procedure, shortened: as §1

ducksalad = assay: Test D flooded paddy test; type: in vivo, Heteranthera limosa; details: 250 g ai/ha, applied to paddy water, visual rating after 13 to 14 days, scale 0 to 100 (0 no effect, 100 complete control)
Procedure, shortened: as §2

soybean [14] = assay: Test C postemergence; type: in vivo, Glycine max; details: 10 days, 0 to 100 scale (0 no effect, 100 complete control)
Procedure, shortened: as §1

rice = assay: Test D flooded paddy test; type: in vivo, Oryza sativa; details: 250 g ai/ha, applied to paddy water, visual rating after 13 to 14 days, scale 0 to 100 (0 no effect, 100 complete control)
Procedure, shortened: as §2

ragweed [15] = assay: Test C postemergence; type: in vivo, Ambrosia artemisiifolia; details: 10 days, 0 to 100 scale (0 no effect, 100 complete control)
Procedure, shortened: as §1

barnyardgrass [16] = assay: Test C preemergence; type: in vivo, Echinochloa crusgalli; details: preemergence, 0 to 100 scale (0 no effect, 100 complete control)
Procedure, shortened: as §1

galium = assay: Test C postemergence; type: in vivo, Galium aparine; details: 10 days, 0 to 100 scale (0 no effect, 100 complete control)
Procedure, shortened: as §1

horseweed = assay: Test C postemergence; type: in vivo, Erigeron canadensis; details: 10 days, 0 to 100 scale (0 no effect, 100 complete control)
Procedure, shortened: as §1

green foxtail [17] = assay: Test C postemergence; type: in vivo, Setaria viridis; details: 10 days, 0 to 100 scale (0 no effect, 100 complete control)
Procedure, shortened: as §1

corn [18] = assay: Test C postemergence; type: in vivo, Zea mays; details: 10 days, 0 to 100 scale (0 no effect, 100 complete control)
Procedure, shortened: as §1

barnyardgrass [19] = assay: Test D flooded paddy test; type: in vivo, Echinochloa crus-galli; details: 250 g ai/ha, applied to paddy water, visual rating after 13 to 14 days, scale 0 to 100 (0 no effect, 100 complete control)
Procedure, shortened: as §2

ryegrass, Italian [20] = assay: Test C postemergence; type: in vivo, Lolium multiflorum; details: 10 days, 0 to 100 scale (0 no effect, 100 complete control)
Procedure, shortened: as §1

kochia [21] = assay: Test C preemergence; type: in vivo, Bassia scoparia; details: preemergence, 0 to 100 scale (0 no effect, 100 complete control)
Procedure, shortened: as §1

barnyardgrass [22] = assay: Test C postemergence; type: in vivo, Echinochloa crusgalli; details: 10 days, 0 to 100 scale (0 no effect, 100 complete control)
Procedure, shortened: as §1

green foxtail [23] = assay: Test C preemergence; type: in vivo, Setaria viridis; details: preemergence, 0 to 100 scale (0 no effect, 100 complete control)
Procedure, shortened: as §1

COC[C@H]1CN(C(=O)c2cc(-n3cnc(C(C)C)n3)ccc2C)c2cccc(Cl)c2O1 [Compound 313]
Corn plant response rating (corn [1]; 500 g ai/ha): 0 | Corn plant response rating (corn [1]; Test C, 125 g ai/ha): 0 | Pigweed, Palmer plant response rating (pigweed, palmer [2]; 500 g ai/ha): 100 | Pigweed, Palmer plant response rating (pigweed, palmer [2]; Test C, 125 g ai/ha): 100 | Plant response rating, Oat, Wild (oat, wild [3]; 500 g ai/ha, postemergence): 60 | Plant response rating, Oat, Wild (oat, wild [3]; Postemergence, 125 g ai/ha): 20 | Soybean plant response rating (soybean [4]; 500 g ai/ha): 100 | Soybean plant response rating (soybean [4]; Test C, 125 g ai/ha): 40 | Plant response rating, Sedge, Umbrella (Flood) (sedge, umbrella): 98 | Blackgrass plant response rating (blackgrass [5]; 500 g ai/ha): 60 | Blackgrass plant response rating (blackgrass [5]; Test C, 125 g ai/ha): 50 | Plant response rating, Pigweed, Palmer (pigweed, palmer [6]; 500 g ai/ha, postemergence): 100 | Plant response rating, Pigweed, Palmer (pigweed, palmer [6]; Postemergence, 125 g ai/ha): 80 | Ragweed plant response rating (ragweed [7]; 500 g ai/ha): 70 | Ragweed plant response rating (ragweed [7]; Test C, 125 g ai/ha): 0 | Oat, Wild plant response rating (oat, wild [8]; 500 g ai/ha): 90 | Oat, Wild plant response rating (oat, wild [8]; Test C, 125 g ai/ha): 90 | Ryegrass, Italian plant response rating (ryegrass, Italian [9]; 500 g ai/ha): 100 | Ryegrass, Italian plant response rating (ryegrass, Italian [9]; Test C, 125 g ai/ha): 80 | Plant response rating, Blackgrass (blackgrass [10]; 500 g ai/ha, postemergence): 100 | Plant response rating, Blackgrass (blackgrass [10]; Postemergence, 125 g ai/ha): 70 | Plant response rating, Wheat (wheat [11]; 500 g ai/ha, postemergence): 50 | Plant response rating, Wheat (wheat [11]; Postemergence, 125 g ai/ha): 30 | Plant response rating, Kochia (kochia [12]; 500 g ai/ha, postemergence): 90 | Plant response rating, Kochia (kochia [12]; Postemergence, 125 g ai/ha): 90 | Wheat plant response rating (wheat [13]; 500 g ai/ha): 90 | Wheat plant response rating (wheat [13]; Test C, 125 g ai/ha): 20 | Plant response rating, Ducksalad (Flood) (ducksalad): 65 | Plant response rating, Soybean (soybean [14]; 500 g ai/ha, postemergence): 100 | Plant response rating, Soybean (soybean [14]; Postemergence, 125 g ai/ha): 100 | Plant response rating, Rice (Flood) (rice): 20 | Plant response rating, Ragweed (ragweed [15]; 500 g ai/ha, postemergence): 90 | Plant response rating, Ragweed (ragweed [15]; Postemergence, 125 g ai/ha): 60 | Barnyardgrass plant response rating (barnyardgrass [16]; 500 g ai/ha): 100 | Barnyardgrass plant response rating (barnyardgrass [16]; Test C, 125 g ai/ha): 80 | Plant response rating, Galium (galium; 500 g ai/ha, postemergence): 100 | Plant response rating, Galium (galium; Postemergence, 125 g ai/ha): 100 | Plant response rating, Horseweed (horseweed; 500 g ai/ha, postemergence): 90 | Plant response rating, Horseweed (horseweed; Postemergence, 125 g ai/ha): 90 | Plant response rating, Foxtail, Green (green foxtail [17]; 500 g ai/ha, postemergence): 90 | Plant response rating, Foxtail, Green (green foxtail [17]; Postemergence, 125 g ai/ha): 40 | Plant response rating, Corn (corn [18]; 500 g ai/ha, postemergence): 90 | Plant response rating, Corn (corn [18]; Postemergence, 125 g ai/ha): 80 | Plant response rating, Barnyardgrass (Flood) (barnyardgrass [19]): 35 | Plant response rating, Ryegrass, Italian (ryegrass, Italian [20]; 500 g ai/ha, postemergence): 90 | Plant response rating, Ryegrass, Italian (ryegrass, Italian [20]; Postemergence, 125 g ai/ha): 80 | Kochia plant response rating (kochia [21]; 500 g ai/ha): 100 | Kochia plant response rating (kochia [21]; Test C, 125 g ai/ha): 80 | Plant response rating, Barnyardgrass (barnyardgrass [22]; 500 g ai/ha, postemergence): 70 | Plant response rating, Barnyardgrass (barnyardgrass [22]; Postemergence, 125 g ai/ha): 40 | Foxtail, Green plant response rating (green foxtail [23]; 500 g ai/ha): 100 | Foxtail, Green plant response rating (green foxtail [23]; Test C, 125 g ai/ha): 100
